Data on six molecules can be found in patent publication US20200254065A1, “LONG-ACTING GLP-2 ANALOGS” (OPKO Biologics Ltd., priority 2019, published 2020).

The target in series [1] is T1, GLP-2 receptor (UniProt O95838 1-553, limits assumed).
T1 sequence (looked up): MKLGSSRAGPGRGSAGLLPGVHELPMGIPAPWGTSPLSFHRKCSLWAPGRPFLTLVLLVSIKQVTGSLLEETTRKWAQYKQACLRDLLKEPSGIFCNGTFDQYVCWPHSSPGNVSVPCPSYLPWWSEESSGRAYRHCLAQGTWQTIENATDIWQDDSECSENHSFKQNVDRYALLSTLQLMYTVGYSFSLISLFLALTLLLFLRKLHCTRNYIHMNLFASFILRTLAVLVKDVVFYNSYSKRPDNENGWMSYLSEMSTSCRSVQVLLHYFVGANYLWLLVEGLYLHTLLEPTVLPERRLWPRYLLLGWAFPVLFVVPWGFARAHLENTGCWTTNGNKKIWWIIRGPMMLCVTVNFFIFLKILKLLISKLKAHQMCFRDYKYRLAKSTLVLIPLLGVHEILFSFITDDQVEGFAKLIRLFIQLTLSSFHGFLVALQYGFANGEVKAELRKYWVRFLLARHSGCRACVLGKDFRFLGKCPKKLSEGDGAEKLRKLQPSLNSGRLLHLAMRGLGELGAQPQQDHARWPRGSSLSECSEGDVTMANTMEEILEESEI
In words: cell-based or functional assay.

Series [2] concerns intestine epithelium (crypts plus villi). Briefly: Crypts plus villi length, histopathology of small intestine. It is filed as in vivo, SD rats. The note with it: Study 15203; single SC 2 mg/kg on Day 1; Days 6 and 10. As for the experimental part:
In addition to PEG30-FMS-V4 and PEG30-Fmoc-V4 that have been pharmacology evaluated by small intestinal weight evaluation (As shown in Example 5), four other reversible PEGylated variant 4 (“V4”) conjugates and two reversible linker-V4 conjugates were synthesized. All the above were injected to 6 normal SD rats/group once at 2 mg/kg (peptide dose), while on the 6th day, animals were scarified, and the small intestine was weighted followed by histopathology evaluation. […] Therefore, slices from three areas of the intestine (duodenum, jejunum and ilium) were stained with hematoxylin and eosin and at least 7 Crypts+Villi length/slice were measured. The averaged Villi+Crypt length of each treatment group (n=6) was compared to the vehicle group (negative control) and calculated as percentage increase over vehicle. […]
An additional study to evaluate the efficacy and the longevity of V4 and Cys-FMS-V4 was conducted (Study reference 15204) in which the animals were sacrificed on Days 6 (N=6), 10 (N=4) and 14 (N=4). This experiment measured the pharmacological response compared to the commercially approved SBS treatment drug Gattex. In addition, two new conjugates were tested by conjugating V4 to reduced OSu-linker and Cys-FMS-V4 purified from resin. The animals were injected with a single SC injection at Day 1 with 2 mg/kg peptide content of V4, Cys-FMS-V4, FMS-OSu-V4, Apraglutide and Glepaglutide while Gattex was SC injected daily at 2.5 mg/kg peptide content. […]

Series [3] has as its target T2, GLP-2 receptor (Homo sapiens, UniProt O95838).
T2 sequence (O95838 1-553): T1 sequence (looked up)
In words: GLP-2 receptor Cell Based Assay (CBA).
Description: Evaluation of in vitro binding affinity of the different peptides was assessed by using Cell Based Assay (CBA) in the presence of escalating doses of the different peptides.

Series [4] in a line: Pharmacokinetics of modified GLP-2 variants in rats. Format: in vivo. The note with it: rat, serum, peptide dose 15 mg/kg.
Series [5] in a line: Stability of GLP-2 analogues on incubation at 37° C. (appearance, O.D. reading, RP-HPLC). It is filed as physicochemical. The note with it: following 48 h incubation at 37° C. As for the experimental part:
The GLP-2 analogues were tested for stability via appearance, O.D. reading (A.280, and A.325) and RP-HPLC (purity, and peak area) following t=0, 1 day, and 48 h incubation at 37° C.

The next series concerns small intestine. In words: Intestine weight model in rats. It is filed as in vivo, SD rats. The note with it: modified peptides; two injections on days 1 & 3 at 1 mg/kg; intestine weight on day 6. How it is done: In the pharmacology study, the conjugates were injected subcutaneously twice, on days 1 and 3 at 1 mg/kg (peptide dose) and intestine weight was performed on day 6. In addition to the PEGylated conjugates, GLP-2-Gly2 was injected at the same dose and regimen for comparison. The average of the intestine weight of each group was compared to that of the vehicle group.
In a different study, several of the PEGylated teduglutide were injected as a single dose at 1 mg/kg and the intestine weight performed on day 6.
Pharmacology and pharmacokinetic studies were performed with the most promising GLP-2 variants to evaluate their efficacy and longevity, respectively. The intestine weight model in rats was conducted to evaluate efficacy, by measuring percent increase of the intestine weight of treated animals over the vehicle group. In this study, the peptides were injected twice, on days 1 and 3 at 1 mg/kg and the intestine weight was conducted on day 6.
PEG20-FMS-V6, PEG20-Fmoc-V6 and PEG40-FMS-V6 were injected once at 1 mg/kg dose on day 1, while group D was also injected twice on days 1 & 3 at 1 mg/kg. The intestine weight was performed on day 6.
Three different reversible PEGylated GLP-2 variants using mutated peptide #4 were injected at 2 mg/kg (peptide dose), once every 6 days for 12 days. On the 12th day the intestine was weighted and compared to the control group. PEG30-FMS-V4 was injected at 0.5 mg/kg as well to evaluate the efficacy dose range.
In addition to PEG30-FMS-V4 and PEG30-Fmoc-V4 that have been pharmacology evaluated by small intestinal weight evaluation (As shown in Example 5), four other reversible PEGylated variant 4 (“V4”) conjugates and two reversible linker-V4 conjugates were synthesized. All the above were injected to 6 normal SD rats/group once at 2 mg/kg (peptide dose), while on the 6th day, animals were scarified, and the small intestine was weighted followed by histopathology evaluation. […] Therefore, slices from three areas of the intestine (duodenum, jejunum and ilium) were stained with hematoxylin and eosin and at least 7 Crypts+Villi length/slice were measured. The averaged Villi+Crypt length of each treatment group (n=6) was compared to the vehicle group (negative control) and calculated as percentage increase over vehicle.
Additional studies were conducted to evaluate the efficacy of the V4 peptide and the reversible MAL-FMS-V4. The long acting effect of V4 and the conjugates were evaluated at Day 6 and Day 10 following treatment (Study reference 15203). All test groups (n=9) were injected SC with 2 mg/kg peptide content at Day 1. At Days 6 and 10, animals were sacrificed and the small intestine underwent histopathology evaluation (6 animals for Day 6, 3 animals for Day 10). FIGS. 12 and 13 show the pharmacology effect of different V4 conjugates and Apraglutide and Glepaglutide as measured by the percent increase of small intestine weight and crypts plus villi length over vehicle, respectively.
To further evaluate the pharmacology efficacy of V4 and Cys-FMS-V4, an experiment was performed to test their acute and prolonged effect on the small intestine (Study reference 15205). In addition, V4 and Cys-FMS-V4 were administrated as a single SC injection on Day 1 at 3 different doses (0.5, 2.0 or 8.0 mg/kg peptide content, 6 rats per group) to assess the dose dependence effect. The pharmacological effect on small intestine weight and villi plus crypts length was measured at Days 3, 7 and 14, and the results are presented in FIGS. 15 and 16. […] It should be noted that this acute response was higher for V4 compared to Cys-FMS-V4 at all 3 dose levels.

The target in series [6] is GLP-2 receptor (UniProt O95838). In words: cell-based or functional assay.
Setting [7] is: Table 8, average of 3 independent CBA.

Square brackets hold non-standard residues; d marks the D form. Ends that are not written are not given here. Peptide text beside a SMILES is read from it. Nle = CCCC[C@H](N)C(=O)O

In the case of GLP2 DiscoverX Kit (peptide), in the series with GLP-2 receptor [1], the EC50 (nM) Average, GLP2-receptor CBA, 3 independent assays was 0.8 nM; the EC50 Ratio to Teduglutide, CBA was found to be 1.8 fold; the EC50 Ratio to Teduglutide, GLP2-receptor CBA turned out to be 1.3 fold; the EC50 Ratio to Variant 4, GLP2-receptor CBA is 0.7 fold. This molecule had an EC50 [nM], Cell Based Assay (CBA), cells overexpressing the GLP-2 receptor with GLP-2 receptor [1] of 10.1 nM.
For the molecule `CCCC[C@H](NC(=O)[C@H](CCC(=O)O)NC(=O)[C@H](CC(=O)O)NC(=O)[C@H](CO)NC(=O)[C@H](Cc1ccccc1)NC(=O)[C@H](CO)NC(=O)CNC(=O)[C@H](CC(=O)O)NC(=O)CNC(=O)[C@@H](N)Cc1c[nH]cn1)C(=O)N[C@H](Cc1ccccc1)C(=O)N[C@H](C(=O)N[C@H](C(=O)N[C@@H](CC(C)C)C(=O)N[C@@H](CC(=O)O)C(=O)N[C@@H](CC(C)C)C(=O)N[C@@H](CC(C)C)C(=O)N[C@@H](C)C(=O)N[C@@H](C)C(=O)N[C@@H](CCCNC(=N)N)C(=O)N[C@@H](CC(=O)O)C(=O)N[C@@H](Cc1ccccc1)C(=O)N[C@H](C(=O)N[C@@H](CC(N)=O)C(=O)N[C@@H](Cc1c[nH]c2ccccc12)C(=O)N[C@@H](CC(C)C)C(=O)N[C@H](C(=O)N[C@@H](CCC(N)=O)C(=O)N[C@H](C(=O)N[C@@H](CCCCN)C(=O)N[C@H](C(=O)N[C@H](C(=O)N[C@@H](CC(=O)O)C(N)=O)[C@@H](C)O)[C@@H](C)CC)[C@@H](C)O)[C@@H](C)CC)[C@@H](C)CC)[C@@H](C)CC)[C@@H](C)O` [Variant 1, reference compound] (H-HGDGSFSDE[Nle][dF]TILDLLAARDFINWLIQTKITD-NH2), in series [2], the “Crypts plus villi length percent increase over vehicle (FIG. 13)” value is “moderate effect that was higher than Glepaglutide and the PEG30-FMS-V4 conjugate”. Also, on GLP-2 receptor [3] (setting [7]), the “EC50 Ratio to Teduglutide” value turned out to be 2.9 and the “EC50 Ratio to Variant 4” value came to 1.6.
As usually defined, the half-life is the time in which the quantity being followed falls by half. For `CCCC[C@H](NC(=O)[C@H](CCC(=O)O)NC(=O)[C@H](CC(=O)O)NC(=O)[C@H](CO)NC(=O)[C@H](Cc1ccccc1)NC(=O)[C@H](CO)NC(=O)CNC(=O)[C@H](CCC(=O)O)NC(=O)CNC(=O)[C@@H](N)Cc1c[nH]cn1)C(=O)N[C@H](Cc1c[nH]cn1)C(=O)N[C@H](C(=O)N[C@H](C(=O)N[C@@H](CC(C)C)C(=O)N[C@@H](CC(=O)O)C(=O)N[C@@H](CC(N)=O)C(=O)N[C@@H](CC(C)C)C(=O)N[C@@H](C)C(=O)N[C@@H](C)C(=O)N[C@@H](CCCNC(=N)N)C(=O)N[C@@H](CC(=O)O)C(=O)N[C@@H](Cc1ccccc1)C(=O)N[C@H](C(=O)N[C@@H](CC(N)=O)C(=O)N[C@@H](Cc1c[nH]c2ccccc12)C(=O)N[C@@H](CC(C)C)C(=O)N[C@H](C(=O)N[C@@H](CCC(N)=O)C(=O)N[C@H](C(=O)N[C@@H](CCCCN)C(=O)N[C@H](C(=O)N[C@H](C(=O)N[C@@H](CC(=O)O)C(N)=O)[C@@H](C)O)[C@@H](C)CC)[C@@H](C)O)[C@@H](C)CC)[C@@H](C)CC)[C@@H](C)CC)[C@@H](C)O` [Variant 3] (H-HGEGSFSDE[Nle][dH]TILDNLAARDFINWLIQTKITD-NH2), the half-life in series [4] is 1.9 h. For the same molecule, the Solubility via appearance result in series [5] is given as “V3: clear”. The “Stability via RP-HPLC main peak” value in series [5] (change of main peak) is “V3: −4%”. Moreover, on GLP-2 receptor [3] (Table 7), the “EC50 Ratio to Teduglutide” value came to 2.5. Further, in the series on small intestine, the “Increase of intestine weight over vehicle (%)” value is recorded as 4%.
As for `CCCC[C@H](NC(=O)[C@H](CCC(=O)O)NC(=O)[C@H](CC(=O)O)NC(=O)[C@H](CO)NC(=O)[C@H](Cc1ccccc1)NC(=O)[C@H](CO)NC(=O)CNC(=O)[C@H](CCC(=O)O)NC(=O)CNC(=O)[C@@H](N)Cc1c[nH]cn1)C(=O)N[C@@H](CC(N)=O)C(=O)N[C@H](C(=O)N[C@H](C(=O)N[C@@H](CC(C)C)C(=O)N[C@@H](CC(=O)O)C(=O)N[C@@H](Cc1ccc(O)cc1)C(=O)N[C@@H](CC(C)C)C(=O)N[C@@H](C)C(=O)N[C@@H](C)C(=O)N[C@@H](CCCNC(=N)N)C(=O)N[C@@H](CC(=O)O)C(=O)N[C@@H](Cc1ccccc1)C(=O)N[C@H](C(=O)N[C@@H](CC(N)=O)C(=O)N[C@@H](Cc1c[nH]c2ccccc12)C(=O)N[C@@H](CC(C)C)C(=O)N[C@H](C(=O)N[C@@H](CCC(N)=O)C(=O)N[C@H](C(=O)N[C@@H](CCCCN)C(=O)N[C@H](C(=O)N[C@H](C(=O)N[C@@H](CC(=O)O)C(N)=O)[C@@H](C)O)[C@@H](C)CC)[C@@H](C)O)[C@@H](C)CC)[C@@H](C)CC)[C@@H](C)CC)[C@@H](C)O` [Variant 5] (H-HGEGSFSDE[Nle]NTILDYLAARDFINWLIQTKITD-NH2), in series [4], the half-life was 6.5 h. Further, the Solubility via appearance result in series [5] is on record as “V5: clear”. For the same molecule, the “EC50 Ratio to Teduglutide” value at GLP-2 receptor [3] (Table 7) stood at 2.4. For the same molecule, the “Increase of intestine weight over vehicle (%)” value in the series on small intestine came out at 10%.
Take HGEGTFSSELATILDALAARDFIAWLIATKITDKKKKKK-NH2 [Glepaglutide (V10)]: in the series with GLP-2 receptor [6], the EC50 (nM) Average, GLP2-receptor CBA, 3 independent assays was determined as 5.4 nM; the EC50 Ratio to Teduglutide, GLP2-receptor CBA was determined as 9.4 fold; the EC50 Ratio to Variant 4, GLP2-receptor CBA was 5.3 fold.
In the same order, the values of HGDGSFSDE[Nle][dF]TILDLLAARDFINWLIQTKITD-NH2 [Apraglutide (V1)] are 1.7 nM, 2.9 fold and 1.6 fold.
